Test results reported in BindingDB's records for doi:10.1016/j.ejmech.2017.02.004 (China Pharmaceutical University, 2017).

Key:
[1] = Substrate activity at NQO1 in human A549 cells assessed as NQO1-mediated two-electron reduction of compound by measuring cell growth inhibition treated for 24 hrs measured after 72 hrs by MTT assay
[2] = Substrate activity at CPR in human L02 cells assessed as CPR-mediated one-electron reduction of compound by measuring cell growth inhibition treated for 24 hrs measured after 72 hrs by MTT assay
[3] = Substrate activity at NQO1 in human MCF7 cells assessed as NQO1-mediated two-electron reduction of compound by measuring cell growth inhibition treated for 24 hrs measured after 72 hrs by MTT assay
[4] = Substrate activity at NQO1 in human HCT116 cells assessed as NQO1-mediated two-electron reduction of compound by measuring cell growth inhibition treated for 24 hrs measured after 72 hrs by MTT assay
[5] = Substrate activity at NQO1 in human H1650 cells assessed as NQO1-mediated two-electron reduction of compound by measuring cell growth inhibition treated for 24 hrs measured after 72 hrs by MTT assay
[6] = Substrate activity at NQO1 in human H522 cells assessed as NQO1-mediated two-electron reduction of compound by measuring cell growth inhibition treated for 24 hrs measured after 72 hrs by MTT assay
[7] = Substrate activity at NQO1 in human H1299 cells assessed as NQO1-mediated two-electron reduction of compound by measuring cell growth inhibition treated for 24 hrs measured after 72 hrs by MTT assay
[8] = Substrate activity at NQO1 in human HepG2 cells assessed as NQO1-mediated two-electron reduction of compound by measuring cell growth inhibition treated for 24 hrs measured after 72 hrs by MTT assay

IC50 [1] [µM]	IC50 [2] [µM]	also measured	SMILES
5.8			COc1ccc2c(c1)C1=C(C(=O)C2=O)C(C)(C)C(C)O1 (centres undefined)
3.1			Cc1cc2c(cc1C)-c1occc1C(=O)C2=O
3.1	25		CCc1coc2c1C(=O)C(=O)c1cc(C)ccc1-2
3.3		IC50 [3]: 2.4 µM; IC50 [4]: 4.4 µM; IC50 [5]: 9.3 µM; IC50 [6]: 4.8 µM; IC50 [7]: 4.9 µM; IC50 [8]: 2.5 µM	Cc1cc2c(cc1C)-c1occ(C)c1C(=O)C2=O
	30		COc1ccc2c(c1)C(=O)C(=O)C1=C2OC(C)C1(C)C (centres undefined)
2.9	17		Cc1coc2c1C(=O)C(=O)c1c(C)ccc(C)c1-2
	19		COc1cccc2c1C1=C(C(=O)C2=O)C(C)(C)C(C)O1 (centres undefined)
4.1	6.3		Cc1ccc2c(c1)-c1occ(C)c1C(=O)C2=O
8.5	22		Cc1ccc2c(c1)C(=O)C(=O)c1c(C)coc1-2
